pIC50: −log10 of the molar value.
Legend:
aggrecanase-1 = biological target: T1, aggrecanase-1 (Homo sapiens, UniProt O75173); assay: Aggrecanase-1 inhibitory action, Particle Assay (GAG release from aggrecan-containing polyacrylamide particles); assay type: biochemical; conditions: 37° C. for 15 hr, read-out: Experimental Example 1 IC50 AG1
T1 sequence (O75173 213-837): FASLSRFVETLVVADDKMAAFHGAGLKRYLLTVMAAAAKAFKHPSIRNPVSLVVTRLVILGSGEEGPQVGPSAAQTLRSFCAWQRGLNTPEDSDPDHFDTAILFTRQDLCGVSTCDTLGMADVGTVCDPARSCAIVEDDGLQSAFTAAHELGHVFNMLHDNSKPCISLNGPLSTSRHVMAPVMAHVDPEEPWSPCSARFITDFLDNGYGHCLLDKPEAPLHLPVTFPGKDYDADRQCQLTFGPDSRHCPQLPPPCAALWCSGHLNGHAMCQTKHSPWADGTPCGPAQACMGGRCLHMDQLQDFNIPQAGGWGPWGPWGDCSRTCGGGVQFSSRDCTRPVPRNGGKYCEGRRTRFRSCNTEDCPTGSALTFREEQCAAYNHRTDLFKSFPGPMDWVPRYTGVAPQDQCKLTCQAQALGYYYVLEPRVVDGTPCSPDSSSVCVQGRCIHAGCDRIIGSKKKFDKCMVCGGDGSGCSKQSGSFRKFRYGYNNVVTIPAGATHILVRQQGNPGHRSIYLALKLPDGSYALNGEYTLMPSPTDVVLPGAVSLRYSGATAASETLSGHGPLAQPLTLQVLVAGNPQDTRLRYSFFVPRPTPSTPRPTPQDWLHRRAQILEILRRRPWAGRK
Protocol: Aggrecanase-1 Inhibitory Action
Particle Assay was used for determination of aggrecanase activity.
(§1) The enzyme and substrate were diluted with Tris-HCl buffer, and test compounds were diluted with dimethyl sulfoxide (DMSO).
Test compounds and the enzyme were added into 96-well plate, and polyacrylamide particles containing aggrecan were added as a substrate and the mixture was incubated at 37° C. for 15 hr.
After incubation; the supernatant was transferred to another plate, and mixed with 1,9-dimethylmethylene blue. The absorbance at 595 nm was measured to quantify the amount of glycosaminoglycan (GAG) released in the reaction supernatant. Whale chondroitin sulfate was used as the standard of GAG. The inhibitory activity of the compound in each well (%) was calculated based on the values of enzyme-free well and inhibitor-free well. The inhibitory activity of the compound was represented as IC50 (μM).

MMP-1 = biological target: T2, MMP-1 (Homo sapiens, UniProt P03956); assay: MMP-1 inhibitory action, Type I collagen Activity Measurement kit (FITC-labeled collagen type I); assay type: biochemical; conditions: 37° C. for 3 hr, read-out: Experimental Example 2 IC50 MMP1
T2 sequence (P03956 100-469): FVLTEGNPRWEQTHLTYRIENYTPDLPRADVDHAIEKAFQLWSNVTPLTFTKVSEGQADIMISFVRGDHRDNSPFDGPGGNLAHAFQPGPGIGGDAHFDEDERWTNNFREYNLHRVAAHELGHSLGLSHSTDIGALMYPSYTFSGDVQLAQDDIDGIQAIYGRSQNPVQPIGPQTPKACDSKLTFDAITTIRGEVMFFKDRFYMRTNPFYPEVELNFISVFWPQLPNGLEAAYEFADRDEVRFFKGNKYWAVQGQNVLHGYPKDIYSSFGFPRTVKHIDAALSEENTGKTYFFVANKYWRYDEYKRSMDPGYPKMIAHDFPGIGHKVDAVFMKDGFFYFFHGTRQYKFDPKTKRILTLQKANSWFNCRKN
Protocol: For MMP-1 Assay, Type I collagen Activity Measurement kit (YAGAI YU-72013) modified to a 96-well plate format was used.
The principle of the kit is based on the property of collagen that becomes soluble in ethanol after being cleaved by MMP-1.
as §1
The enzyme and test compounds were added into 96-well plate, and fluorescein isothiocianate (FITC)-labeled collagen type I was added as a substrate and the mixture was incubated at 37° C. for 3 hr.
The reaction was terminated by addition of Tris-HCl buffer containing ethanol. After centrifugation, the supernatant containing denatured substrate was transferred to another 96-well plate. The collagenase activity of MMP-1 was determined by measuring FITC fluorescence intensity (excitation wavelength 485 nm, emission wavelength 530 nm) of each well. The inhibitory activity of the compound in each well (%) was calculated based on the values of enzyme-free well and inhibitor-free well. The inhibitory activity of the compound was represented as IC50 (μM).

| pIC50 (aggrecanase-1) | pIC50 (MMP-1) | SMILES |
| --- | --- | --- |
| > 6.00 | ≤ 5.00 | N#Cc1ccccc1[C@@H]1C[C@@]1(C(=O)O)N(CC(=O)O)S(=O)(=O)c1ccc(-c2ccc(Cl)cc2)cc1 (relative stereo) [Example 1-28, (1R*,2S*)-1-[carboxymethyl-(4′-chloro-biphenyl-4-sulfonyl)-amino]-2-(2-cyano-phenyl)-cyclopropanecarboxylic acid] |
| > 6.00 | ≤ 5.00 | O=C(O)CN([C@]1(C(=O)O)C[C@H]1c1c(Cl)cccc1Cl)S(=O)(=O)c1ccc(-c2ccc(Cl)cc2)cc1 (relative stereo) [Example 1-29, (1R*,2S*)-1-[carboxymethyl-(4′-chloro-biphenyl-4-sulfonyl)-amino]-2-(2,6-dichloro-phenyl)-cyclopropanecarboxylic acid] |
| > 6.00 | ≤ 5.00 | N#Cc1ccc([C@@H]2C[C@@]2(C(=O)O)N(CC(=O)O)S(=O)(=O)c2ccc(-c3ccc(Cl)cc3)cc2)cc1 (relative stereo) [Example 1-30, (1R*,2S*)-1-[carboxymethyl-(4′-chloro-biphenyl-4-sulfonyl)-amino]-2-(4-cyano-phenyl)-cyclopropanecarboxylic acid] |
| > 7.00 | ≤ 5.00 | O=C(O)CN([C@]1(C(=O)O)C[C@H]1c1ccccc1Cc1ccccc1)S(=O)(=O)c1ccc(-c2ccc(Cl)cc2)cc1 (relative stereo) [Example 1-31, (1R*,2S*)-2-(2-benzyl-phenyl)-1-[carboxymethyl-(4′-chloro-biphenyl-4-sulfonyl)-amino]-cyclopropanecarboxylic acid] |
| > 6.00 | ≤ 5.00 | O=C(O)CN([C@]1(C(=O)O)C[C@H]1c1ccc(-c2ccccc2)cc1)S(=O)(=O)c1ccc(-c2ccc(Cl)cc2)cc1 (relative stereo) [Example 1-32, (1R*,2S*)-2-biphenyl-4-yl-1-[carboxymethyl-(4′-chloro-biphenyl-4-sulfonyl)-amino]-cyclopropanecarboxylic acid] |
| > 6.00 | ≤ 5.00 | O=C(O)CN([C@]1(C(=O)O)C[C@H]1c1ccccc1C(F)(F)F)S(=O)(=O)c1ccc(-c2ccc(Cl)cc2)cc1 (relative stereo) [Example 1-33, (1R*,2S*)-1-[carboxymethyl-(4′-chloro-biphenyl-4-sulfonyl)-amino]-2-(2-trifluoromethyl-phenyl)-cyclopropanecarboxylic acid] |
| > 7.00 | ≤ 5.00 | O=C(O)CN([C@]1(C(=O)O)C[C@H]1c1cccc(C(F)(F)F)c1)S(=O)(=O)c1ccc(-c2ccc(Cl)cc2)cc1 (relative stereo) [Example 1-34, (1R*,2S*)-1-[carboxymethyl-(4′-chloro-biphenyl-4-sulfonyl)-amino]-2-(3-trifluoromethyl-phenyl)-cyclopropanecarboxylic acid] |
| > 6.00 | ≤ 5.00 | O=C(O)CN([C@]1(C(=O)O)C[C@H]1c1cc(Cl)ccc1C(F)(F)F)S(=O)(=O)c1ccc(-c2ccc(Cl)cc2)cc1 (relative stereo) [Example 1-35, (1R*,2S*)-1-[carboxymethyl-(4′-chloro-biphenyl-4-sulfonyl)-amino]-2-(5-chloro-2-trifluoromethyl-phenyl)-cyclopropanecarboxylic acid] |
| > 6.00 | ≤ 5.00 | CC(C)(CN([C@]1(C(=O)O)C[C@H]1c1ccccc1)S(=O)(=O)c1ccc(-c2ccc(Cl)cc2)cc1)C(=O)O (relative stereo) [Example 1-37, (1R*,2S*)-1-[(2-carboxy-2-methyl-propyl)-(4′-chloro-biphenyl-4-sulfonyl)-amino]-2-phenyl-cyclopropanecarboxylic acid] |
| > 6.00 | ≤ 5.00 | CS(=O)(=O)NC(=O)CN([C@]1(C(=O)O)C[C@H]1c1ccccc1)S(=O)(=O)c1ccc(-c2ccc(Cl)cc2)cc1 (relative stereo) [Example 1-38, (1R*,2S*)-1-[(4′-chloro-biphenyl-4-sulfonyl)-(2-methanesulfonylamino-2-oxo-ethyl)-amino]-2-phenyl-cyclopropanecarboxylic acid] |
| > 7.00 | ≤ 5.00 | O=C(O)CN([C@]1(C(=O)O)C[C@H]1c1cccc(OCc2ccccc2)c1)S(=O)(=O)c1ccc(-c2ccc(Cl)cc2)cc1 (relative stereo) [Example 1-39, (1R*,2S*)-2-(3-benzyloxy-phenyl)-1-[carboxymethyl-(4′-chloro-biphenyl-4-sulfonyl)-amino]-cyclopropanecarboxylic acid] |
| > 7.00 | ≤ 5.00 | O=C(O)CN([C@]1(C(=O)O)C[C@H]1c1ccccc1OCc1ccccc1)S(=O)(=O)c1ccc(-c2ccc(Cl)cc2)cc1 (relative stereo) [Example 1-40, (1R*,2S*)-2-(2-benzyloxy-phenyl)-1-[carboxymethyl-(4′-chloro-biphenyl-4-sulfonyl)-amino]-cyclopropanecarboxylic acid] |
| > 7.00 | ≤ 5.00 | O=C(O)CN([C@]1(C(=O)O)C[C@H]1c1cccc(Cl)c1Cl)S(=O)(=O)c1ccc(-c2ccc(Cl)cc2)cc1 (relative stereo) [Example 1-41, (1R*,2S*)-1-[carboxymethyl-(4′-chloro-biphenyl-4-sulfonyl)-amino]-2-(2,3-dichloro-phenyl)-cyclopropanecarboxylic acid] |
| > 7.00 | ≤ 5.00 | O=C(O)CN([C@]1(C(=O)O)C[C@H]1c1ccccc1Oc1ccccc1)S(=O)(=O)c1ccc(-c2ccc(Cl)cc2)cc1 (relative stereo) [Example 1-42, (1R*,2S*)-1-[carboxymethyl-(4′-chloro-biphenyl-4-sulfonyl)-amino]-2-(2-phenoxy-phenyl)-cyclopropanecarboxylic acid] |
| > 6.00 | ≤ 5.00 | O=C(CN([C@]1(C(=O)O)C[C@H]1c1ccccc1)S(=O)(=O)c1ccc(-c2ccc(Cl)cc2)cc1)N1CC(O)C(O)C1 (relative stereo) [Example 1-43, (1R*,2S*)-1-{(4′-chloro-biphenyl-4-sulfonyl)-[2-(3,4-dihydroxy-pyrrolidin-1-yl)-2-oxo-ethyl]-amino}-2-phenyl-cyclopropanecarboxylic acid] |
| > 7.00 | ≤ 5.00 | O=C(O)CN([C@]1(C(=O)O)C[C@H]1c1cccc(Cc2ccccc2)c1)S(=O)(=O)c1ccc(-c2ccc(Cl)cc2)cc1 (relative stereo) [Example 1-44, (1R*, 2S*)-2-(3-benzyl-phenyl)-1-[carboxymethyl-(4′-chloro-biphenyl-4-sulfonyl)-amino]-cyclopropanecarboxylic acid] |
| > 6.00 | ≤ 5.00 | O=C(CN([C@]1(C(=O)O)C[C@H]1c1ccccc1)S(=O)(=O)c1ccc(-c2ccc(Cl)cc2)cc1)N1CCCC1 (relative stereo) [Example 1-45, (1R*,2S*)-1-[(4′-chloro-biphenyl-4-sulfonyl)-(2-oxo-2-pyrrolidin-1-yl-ethyl)-amino]-2-phenyl-cyclopropanecarboxylic acid] |
| > 6.00 | ≤ 5.00 | COC(=O)CN([C@]1(C(=O)O)C[C@H]1c1ccccc1)S(=O)(=O)c1ccc(-c2ccc(Cl)cc2)cc1 (relative stereo) [Example 1-46, (1R*,2S*)-1-[(4′-chloro-biphenyl-4-sulfonyl)-methoxycarbonylmethyl-amino]-2-phenyl-cyclopropanecarboxylic acid] |
